Experimental findings from publication PMC9202104 (BMC Biology, 2022) are described below.

Data set [1] is described as follows: Cytotoxicity, Cell Counting Kit-8, Vero E6 cells. The conditions noted are these: African green monkey, CC50 Vero E6. In kind it is cell-based. Here is the method:
(§1) Briefly, compounds at 2-fold serial dilutions were added to the respective cells (2.0×10^4/well) pre-seeded in 96-well plates. The cells were cultured at 37°C in the presence of 5% CO2 for 3 days, […] incubated with CCK8 solution, followed by measurement of absorbance at 450 nm (A450 value), using a microplate reader (Infinite F200PRO, Tecan, Morrisville, NC, USA). CC50 of compounds was calculated using the CalcuSyn program.

Data set [2] relates to Vero E6 cells. Nature of the data set: Cytotoxicity, Cell Counting Kit-8, Vero E6 cells. As to conditions: African green monkey, 3 days. In kind it is cell-based. Here is the method:
as §1

The target in data set [3] is T1, ZIKV NS2B-NS3 protease (Zika virus, UniProt Q32ZE1).
T1 construct: fused with the genes encoding NS3 protein (residues 1-185) through a linker (Gly4-Thr-Gly4); His6 (C); made in house; host or cells: E. coli
Nature of the data set: Fluorescence-based NS2B-NS3 protease inhibition assay. It counts as biochemical. Here is the method: Substrate (benzoyl-norleucinelysine-lysine-arginine 7-amino-4-methylcoumarine (Bz-Nle-Lys-Lys-Arg-AMC, 4 μM)) (Bachem, Torrance, CA, USA) was added and incubated for 10 min. Fluorescence intensity was then measured at 460 nm (with excitation at 355 nm) using a microplate reader (FLUOstar Omega, BMG Labtech, USA). A total of 10 mM Tris-HCl, 20% glycerol, 1 mM CHAPS, and 5% DMSO (pH 8.5) were used as reaction and dilution buffers. Percent inhibition (% inhibition) of protease activity was measured in the presence or absence of serially diluted compounds based on the formula ((1-(NS2B-NS3-substrate-compound)/(NS2B-NS3-substrate))×100).

Data set [4] can be described thus: Safety profile in pregnant Ifnar1−/− mice and pups. In kind it is in vivo. Here is the method: Briefly, groups of 5 pregnant mice (8–12-week-old, E12-14) were i.p. injected with ST087010 (20 or 40 mg/kg of body weight, 200 μl/mouse), or DMSO (negative control), daily for 4 continuous days.
Data set [5] deals with ZIKV human strain PAN2015. Nature of the data set: Plaque assay, inhibition of ZIKV infection (strain PAN2015). It counts as cell-based. As to conditions: Zika virus, Vero C1008, Vero E6 cells. Here is the method: (§2) After removal of the unbound compounds by centrifugation (after addition of 3% PEG-6000), ZIKV was incubated with Vero E6 cells in 24-well plates at 37°C for 1 h. The cells were then washed with PBS, overlaid with DMEM containing 1% carboxymethyl cellulose and 2% FBS, and cultured at 37°C for 4–5 days, followed by being stained with 0.5% crystal violet. […] Plaques in each well were calculated, and IC50 of compounds for each compound was calculated using the CalcuSyn computer program.

For data set [6], the target named is T2, ZIKV EDIII protein (Zika virus, UniProt A0A024B7W1).
T2 construct: EDIII (residues 298-409 in E protein containing a C-terminal human Fc tag); human Fc (C)
Nature of the data set: ELISA binding to ZIKV EDIII protein. How it is done: Briefly, ELISA plates were coated with each protein (1 μg/ml) at 4°C overnight and were then incubated with blocking buffer containing 2% fat-free milk in PBST (0.05% Tween-20) at 37°C for 2 h. The above compounds, or DMSO control, at serial dilutions were added to the plates and incubated at 37°C for 2 h. After three washes using PBST, the plates were incubated at 37°C for 2 h with ZIKV EDIII-specific human mAb ZKA64-LALA (0.5 μg/ml) (for binding to ZIKV full-length E or EDIII protein), or ZIKV NS2B-NS3-specific mouse sera (for binding to NS2B-NS3 protein). After further washes, the plates were incubated with horseradish peroxidase (HRP)-conjugated anti-human IgG-Fab (1:3,000, Abcam, Cambridge, MS, USA) or anti-mouse IgG (1:3,000, Sigma) antibody at 37°C for 1 h. The plates were incubated with substrate TMB (3,3′,5,5′-tetramethylbenzidine) for 1 min, and the reaction was stopped by addition of 1 N H2SO4. Absorbance at 450 nm (A450 values) was measured by an ELISA microplate reader. Percent binding (% binding) to the E, EDIII, or NS2B-NS3 protein was calculated in the presence or absence of serially diluted compounds using the formula ((1-(E/EDIII/NS2B-NS3-compound)/(E/EDIII/NS2B-NS3))×100), based on which EC50 was calculated using the CalcuSyn program.

For data set [7], the system named is ZIKV human strain IbH 30656. Nature of the data set: Plaque assay, inhibition of ZIKV infection (strain IbH 30656). It counts as cell-based. As to conditions: Zika virus, Vero C1008; plaque assay, Vero E6 cells, human strain; read-out: IC50 IbH 30656. How it is done:
as §2

For data set [8], the system named is ZIKV human strain PRVABC59. As to the kind of experiment: Plaque assay, inhibition of ZIKV infection (strain PRVABC59). In kind it is cell-based. As to conditions: Zika virus, Vero C1008; plaque assay, Vero E6 cells, human strain; read-out: IC50 PRVABC59. How it is done: as §2

The structures appear in SMILES notation.

T1 sequence (Q32ZE1 1499-1683, added parts left off, change not shown): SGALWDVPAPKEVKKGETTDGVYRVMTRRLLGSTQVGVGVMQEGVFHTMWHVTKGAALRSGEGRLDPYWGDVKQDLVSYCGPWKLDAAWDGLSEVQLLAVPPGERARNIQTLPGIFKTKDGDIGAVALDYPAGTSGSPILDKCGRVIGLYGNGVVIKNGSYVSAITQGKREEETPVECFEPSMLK
T2 sequence (A0A024B7W1 588-699): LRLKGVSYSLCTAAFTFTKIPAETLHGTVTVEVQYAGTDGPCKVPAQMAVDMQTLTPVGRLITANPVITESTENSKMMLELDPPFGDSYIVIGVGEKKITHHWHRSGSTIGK

In data set [1], `Cc1cc2c(C(C)C)c(O)c(O)c(/C=N/n3c(=O)[nH][nH]c3=O)c2c(O)c1-c1c(C)cc2c(C(C)C)c(O)c(O)c(/C=N/n3c(=O)[nH][nH]c3=O)c2c1O` [ST087010] returned a CC50 at 3 days of 49.6 µM. This molecule had a CC50 in data set [2] of 49.6 ± 1.83 µM. In addition, the IC50 came to 4.84 µM in data set [3], 3.5 µM in data set [5], 2.9 µM in data set [7] and 2.4 µM in data set [8]. In data set [4] (20 or 40 mg/kg, compared to DMSO), the “Histopathology of liver, spleen, kidney, and brain of mothers and pups” value is given as “did not present pathological changes”. In addition, the “Inflammation or cell infiltration in tissues” value in data set [4] (low and high doses (20 and 40 mg/kg)) is reported as “no inflammation or cell infiltration”. The “Serum ALT and creatinine levels vs DMSO” value in data set [4] (pregnant mice, 20 mg/kg, 1 day after injection) is recorded as “no significant difference”. For the same molecule, the “Serum ALT and creatinine levels” value in data set [4] (pregnant mice, 20 or 40 mg/kg, before injection and 4 h, 3 or 5 days after last injection) is reported as “no significant differences”. In addition, the EC50 in data set [6] came out at 6.13 µM.
